# Paper PMC3747624, “Cloning and Characterization of EF-Tu and EF-Ts from Pseudomonas aeruginosa” (BioMed Research International, 2013)
# Where two headings read alike, the source gives them in different places.
# B1: Pseudomonas aeruginosa elongation factor Ts (natural protein)
# chain: AEITAAMVKELRERTGLGMMECKKALTAAGGDIEKAIDDMRAAGAIKAAKKAGNIAAEGSIAVKIAADNKAAVIIEVNSQTDFLALQDDFKGFVAESLEKAFNEKLTDAAPLVEAREEARLALVAKTGENVNIRRLTRVEGDVVGAYLHGHRIGVVVNLKGGNPELAKDIAMHVAASNPQFLSASEVSEEAIAKEKEIFLALNADKIAGKPENIVENMVKGRISKFLAEASLVEQPFVKNPEVKVGDLAKQAGAEIVSFVRYEVGEGIEKAEVDFAAEVAAQVAATKQ
# Columns and labels:
# [1] = biological target: T1, P. aeruginosa EF-Tu (Pseudomonas aeruginosa, UniProt P09591); assay: GDP exchange initial velocity assay (nitrocellulose filter binding); type: biochemical; settings: for Km: EF-Tu 0.64 μM, 37°C, Lineweaver-Burk, read-out: KM for the interaction of EF-Tu with GDP
# T1 construct: made in house; host or cells: E. coli Rosetta 2(DE3), pET101/D-TOPO
# T1 sequence (P09591 whole entry): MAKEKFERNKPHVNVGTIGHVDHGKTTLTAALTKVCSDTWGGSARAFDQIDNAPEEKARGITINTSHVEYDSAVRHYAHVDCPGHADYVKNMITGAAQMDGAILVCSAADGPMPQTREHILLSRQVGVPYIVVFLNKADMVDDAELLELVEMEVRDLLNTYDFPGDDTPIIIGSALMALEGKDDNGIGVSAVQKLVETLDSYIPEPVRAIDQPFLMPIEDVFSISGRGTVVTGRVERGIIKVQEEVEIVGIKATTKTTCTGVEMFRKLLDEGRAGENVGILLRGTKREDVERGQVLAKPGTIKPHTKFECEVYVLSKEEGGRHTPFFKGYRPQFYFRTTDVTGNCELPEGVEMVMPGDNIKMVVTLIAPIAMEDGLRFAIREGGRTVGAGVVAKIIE
# Procedure: Nitrocellulose filter binding assays were used to determine GDP exchange by EF-Tu as previously described. Assays to determine the initial velocity of GDP exchange were in buffer B (50 mM Tris-HCl, (pH 7.5), 50 mM NH4Cl, and 10 mM MgCl2, 1.0 mM dithiothreitol (DTT)) containing 12 μM [^3H]GDP (500 cpm/pmol). Reactions were incubated at 37°C and were stopped by diluting the reaction mix to 2 mL in buffer B and immediately filtered through nitrocellulose (Whatman; Protran BA 85). Filters were washed three times with 2 mL of buffer B and allowed to dry, and the amount of EF-Tu·[^3H]GDP complex retained was determined by scintillation counting (Beckman Coulter LS 6500). Initial velocity reactions were from 1 to 4 min, and GDP concentrations were varied as indicated.
# Historically, the GDP exchange assay has been used to determine the activity of EF-Tu. […] The kinetic parameters KM and Vmax for the interaction of P. aeruginosa EF-Tu with GDP were determined by inserting the initial velocity data into Lineweaver-Burk plots (Figure 4(b)).
# [2] = tested on: E. coli EF-Tu; settings: cited from earlier work
# [3] = biological target: T1, P. aeruginosa EF-Tu; assay: Equilibrium dissociation constants of EF-Tu·GDP and EF-Tu·GTP complexes (dilution, nitrocellulose filter binding)
# Procedure: Reactions were carried out to determine the equilibrium dissociation constants (K GDP and K GTP) for the interaction of P. aeruginosa EF-Tu with GDP and GTP. The reaction was carried out in buffer B containing 1.3 μM total P. aeruginosa EF-Tu and 12 μM [^3H]GDP (500 cpm/pmol) or [^3H]GTP (750 cpm/pmol). EF-Ts was added to 0.05 μM as indicated. To form EF-Tu·nucleotide complexes, the reactions were incubated for 2 h at 0°C. To determine the total amount of complex formed (defined as active amounts of EF-Tu), reactions were immediately filtered through nitrocellulose filters following incubation. Reactions to determine K GDP and K GTP were diluted by the addition of 5 mL of buffer B that had been preincubated at 37°C, 23°C, or 0°C. Incubation was continued at those temperatures after dilution for 10, 20, and 30 min, respectively. Remaining amounts of the complexes were determined by filtration through nitrocellulose filters.
# The percentage of EF-Tu capable of exchanging GDP (active EF-Tu) was determined from assays described in Section 3.6 which measured the total EF-Tu·[^3H]GDP complexes formed. In these assays, saturating amounts of [^3H]GDP (12 μM) were incubated with EF-Tu on ice for 2 h, and the total labeled EF-Tu·[^3H]GDP complex was determined using nitrocellulose filter binding, which retained the complex but not free GDP. The maximum amount of EF-Tu·GDP complex observed would be equivalent to the concentration of EF-Tu capable of exchanging GDP. Approximately 50% of EF-Tu was capable of forming an EF-Tu·[^3H]GDP complex. In the subsequent experiments containing EF-Tu, the results were based on the concentration of active EF-Tu.
# The equilibrium dissociation constants for the EF-Tu·GDP (K GDP) and EF-Tu·GTP (K GTP) complexes were calculated from measurements of the extent of dissociation of the complexes in dilute solutions. Both complexes were formed by incubation at […] for 2 h in 50 μL reactions (Section 3.3). […] To determine dissociation, the 50 μL reactions were diluted by addition of 5 mL of reaction mix (minus enzyme and nucleotide) that had been preincubated to 37°C, 23°C, or 0°C, and incubation was continued at these temperatures for 10, 20, and 30 min, respectively. These were the conditions used to determine the K GDP for interaction of E. coli EF-Tu with GDP, and we maintained the same conditions in the determination of the K GTP.
# The concentration of complex immediately after dilution was approximately 6.0 × 10^−3 μM. After incubation, the remaining EF-Tu·GDP complex was determined. Total GDP was calculated as the amount of added [^3H]GDP plus GDP that had copurified with EF-Tu. Free GDP was the amount of total GDP minus complexes formed, and free EF-Tu was the amount of initial complex minus remaining complex. The equilibrium dissociation constants for the complexes were calculated using the following equation: (1) KGD/TP=[EF−Tufree][GD/TPfree]/[EF−Tu·GD/TP]. We observed KGDP values for EF-Tu that ranged from 30 to 75 nM in the absence of EF-Ts at the temperatures in which the EF-Tu·GDP complex was allowed to dissociate (Table 2). Previous studies to determine the KGDP governing the binding of GDP to EF-Tu in the E. coli system included EF-Ts in the assays, and therefore we also carried out assays to determine the KGDP in the presence of EF-Ts. There was no statistical change of the KGDP observed in the presence of EF-Ts (30 to 40 nM). These values are within 3-fold of that seen in the E. coli system in which the equilibrium dissociation constant (5 to 10 nM) was determined in the presence of EF-Ts.
# [4] = biological target: Leu-tRNA^Leu and GTP (Pseudomonas aeruginosa, UniProt P09591); settings: 1.2 μM [3H]Leu-tRNA^Leu, 0.5 mM GTP, 15 min 4°C, RNase A
# Leu-tRNA^Leu and GTP, sequence (P09591 whole entry): as above
# Procedure: Ternary complex formation was assayed by examining the ability of EF-Tu to protect [^3H]Leu-tRNA^Leu ) from digestion by RNase A [21, 22]. EF-Tu (0, 0.6, 0.9, 1.2, 1.5, 1.8, 2.1, and 2.4 μM) was incubated in reaction mixtures (50 μL) containing 1.2 μM [^3H]Leu-tRNA^Leu, 0.5 mM GTP, 50 mM Tris-HCl, (pH 7.5), 1 mM DTT, 50 mM NH4Cl, and 6.5 mM MgCl2 for 15 min at 4°C. RNAase A was then added to a final concentration of 0.02 mg/mL and incubated for an additional 20 s. The reactions were stopped by the addition of 3 mL of ice-cold 5% trichloroacetic acid (TCA) and filtered through nitrocellulose filters (Whatman). Retention of [^3H]Leu signified EF-Tu protection of [^3H]Leu-tRNA^Leu from nuclease digestion [22].
# To determine the ability of P. aeruginosa EF-Tu to form a ternary complex with Leu-tRNA^Leu and GTP, the nuclease protection assay was used [19, 22]. The nuclease protection assay measures the formation of a ternary complex by the ability of EF-Tu to protect the 3′ end of the tRNA with the covalently attached [^3H]Leu from digestion by RNase A [45]. […] Reactions contained enough RNase A to hydrolyze over 90% of the leucine away from tRNA^Leu .
# [5] = tested on: P. aeruginosa ribosomes; assay: Poly(U)-dependent binding of Phe-tRNA^Phe ternary complex to the ribosomal A-site; type: biochemical, Pseudomonas aeruginosa; settings: 3.2 μM EF-Tu, 1 μM ribosomes, GDPNP
# Procedure: To determine ternary complex binding to the ribosome, a mixture containing 50 mM Tris-HCl, (pH 7.5), 0.1 mM spermine, 40 mM KCl, 4 mM MgCl2, 1.0 mM DTT, 0.3 mM GTP or guanosine 5′-[β,γ-imido]triphosphate (GDPNP), 0.15 mg/mL poly(U) mRNA, 0.06 μM P. aeruginosa EF-Ts, 3.2 μM EF-Tu, 1.0 μM P. aeruginosa ribosomes, and 0.75 μM [^3H]Phe-tRNA^Phe (25 cpm/pmol) was used. The concentration of EF-Tu was varied from 0.32 to 1.6 μM as indicated. All components were preincubated at 37°C for 15 min in the absence of ribosomes to allow ternary complex formation. Ribosomes were then added, and incubation was continued for an additional 15 min at the same temperature. The amounts of [^3H]Phe-tRNA^Phe bound to the ribosome, representing ternary complex, were analyzed using glass microfiber filter (Whatman) binding as previously described. Control reactions lacked either EF-Tu or ribosomes.
# Aminoacylated tRNA is bound at the ribosomal A-site in a ternary complex. The amount of aminoacylated tRNAs that can be bound to the A-site of the ribosome in a ternary complex was measured using [^3H]Phe-tRNA^Phe in poly(U)-dependent assays. In the absence of poly(U), a basal level of ternary complex will bind to the ribosome. In these assays, GTP was replaced with the nonhydrolyzable analog GDPNP to prevent hydrolysis of the nucleotide and dissociation of EF-Tu. […]
# [6] = biological target: Pseudomonas aeruginosa elongation factor Tu (Pseudomonas aeruginosa PAO1) (UniProt P09591)
# Pseudomonas aeruginosa elongation factor Tu (Pseudomonas aeruginosa PAO1), sequence (P09591 whole entry): as above
molecule,measurement,setting,value
Nc1nc2c(ncn2[C@@H]2O[C@H](COP(=O)(O)OP(=O)(O)O)[C@@H](O)[C@H]2O)c(=O)[nH]1 [GDP],kcat obs for exchange of GDP by EF-Tu,[1]; absence of EF-Ts,0.003 s⁻¹
same,Km,[1]; absence of EF-Ts,33 µM
same,kcat obs for exchange of GDP by EF-Tu,[1]; presence of EF-Ts 0.01 μM,0.005 s⁻¹
same,Km,[1]; presence of EF-Ts 0.01 μM,2 µM
same,GDP bound more tightly than GTP,[2],up to 100 fold
same,Kd,"[3]; EF-Ts 0, 0°C, read-out: K GDP",58 nM
same,Kd,"[3]; EF-Ts 0, 23°C, read-out: K GDP",38 nM
same,Kd,"[3]; EF-Ts 0, 37°C, read-out: K GDP",72 nM
same,Kd,"[3]; EF-Ts 0.5 ×10^−3 μM, 0°C, read-out: K GDP",43 nM
same,Kd,"[3]; EF-Ts 0.5 ×10^−3 μM, 23°C, read-out: K GDP",30 nM
same,Kd,"[3]; EF-Ts 0.5 ×10^−3 μM, 37°C, read-out: K GDP",34 nM
Nc1nc2c(ncn2[C@@H]2O[C@H](COP(=O)(O)OP(=O)(O)OP(=O)(O)O)[C@@H](O)[C@H]2O)c(=O)[nH]1 [GTP],Kd,"[3]; EF-Ts 0, 0°C, read-out: K GTP",150 nM
same,Kd,"[3]; EF-Ts 0, 23°C, read-out: K GTP",123 nM
same,Kd,"[3]; EF-Ts 0, 37°C, read-out: K GTP",175 nM
same,Kd,"[3]; EF-Ts 0.5 ×10^−3 μM, 0°C, read-out: K GTP",156 nM
same,Kd,"[3]; EF-Ts 0.5 ×10^−3 μM, 23°C, read-out: K GTP",125 nM
same,Kd,"[3]; EF-Ts 0.5 ×10^−3 μM, 37°C, read-out: K GTP",190 nM
same,binding of GTP weaker than binding of GDP (KGTP vs KGDP),[3]; P. aeruginosa EF-Tu,up to 6 fold
"EF-Tu: recombinant elongation factor Tu from Pseudomonas aeruginosa, cloned, expressed and purified",specific activity for the exchange of GDP by EF-Tu,[1]; absence of EF-Ts,0.0047 µmol/min/mg
same,EF-Tu capable of forming an EF-Tu·[3H]GDP complex (active EF-Tu),"[3]; 12 μM [3H]GDP, on ice 2 h",Approximately 50%
same,"EF-Tu forming a complex with each form of the nucleotide (GDP, GTP)",[3]; incubation 2 h in 50 μL reactions,approximately 50%
same,EF-Tu active in ternary complex formation,[4],Up to 20%
same,share of the ternary complex formed that bound to the ribosome,[5]; 15 min,approximately 90%
same,ribosomes with ternary complex bound to the A-site,"[5]; within 15 min, 37°C",approximately 50%
B1,"[3H]GDP exchange by EF-Tu (0.64 uM, 1 uM GDP) with 0.05 uM EF-Ts against without EF-Ts, nitrocellulose filter binding, 15 to 120 s, 37°C",[6],7 to 8 fold
